Data set [1] deals with Co-type nitrile hydratase from Pseudonocardia thermophile JCM 3095 (PtNHase) (Pseudonocardia thermophila, UniProt Q7SID2+Q7SID3). The following applies: previously reported value (ref. 21); cited from earlier work.
For data set [2], the target named is Fe-type nitrile hydratase from Comamonas testosteroni Ni1 (CtNHase) (Comamonas testosteroni, UniProt J9PBS0+J9PBS1). Conditions: previously reported value (ref. 34); cited from earlier work.
Substrate in data set [3]: N#Cc1ccccc1
In words: purified protein, by the assay type. Conditions: other: benzonitrile hydrolysis, solution, pH 7.6, 25° C.

Turning to `N#Cc1ccccc1` [benzonitrile], in data set [1], the Michaelis-Menten constant (Km) was 19 µM and the kcat was 120 s⁻¹. Turning to `N#CCCCCC(=O)O` [cyanovaleric acid], in data set [2], the Km is 3200 µM.

B1: Co-type nitrile hydratase from Pseudonocardia thermophile JCM 3095 (PtNHase) (Pseudonocardia thermophila) (protein)
chain 1: MTENILRKSDEEIQKEITARVKALESMLIEQGILTTSMIDRMAEIYENEVGPHLGAKVVVKAWTDPEFKKRLLADGTEACKELGIGGLQGEDMMWVENTDEVHHVVVCTLCSCYPWPVLGLPPNWFKEPQYRSRVVREPRQLLKEEFGFEVPPSKEIKVWDSSSEMRFVVLPQRPAGTDGWSEEELATLVTRESMIGVEPAKAV
chain 2: MNGVYDVGGTDGLGPINRPADEPVFRAEWEKVAFAMFPATFRAGFMGLDEFRFGIEQMNPAEYLESPYYWHWIRTYIHHGVRTGKIDLEELERRTQYYRENPDAPLPEHEQKPELIEFVNQAVYGGLPASREVDRPPKFKEGDVVRFSTASPKGHARRARYVRGKTGTVVKHHGAYIYPDTAGNGLGECPEHLYTVRFTAQELWGPEGDPNSSVYYDCWEPYIELVDTKAAAA
With B1, in data set [3], the Km was 18 µM and the turnover number (kcat) came out at 123 s⁻¹.

One may read the Km as the concentration of substrate that gives half-maximal velocity. The kcat is the number of substrate molecules converted per active site and unit of time at saturation.
